Measurements: the supplement of paper PMC8633005

Legend:
Experiment in all cases: drug sensitivity score (DSS) (DSS (unitless, 0-50 scale)); higher = more sensitive (stronger viability inhibition); extreme values may be limits of the assay
Details in all cases: 72 h; culture: 2D
[1] = test system: SK-MEL-28
How it was run: (§1)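 Viability was measured by CellTiter-Glo luminescence after 72 h at 37 °C in 384-well plates holding a 527-compound oncology library, with patient-derived melanoma cultures (1000–1500 cells per well) and melanoma cell lines grown in 2D. Every compound was tested at five concentrations spanning a 10,000-fold range. The drug sensitivity score, a modified area under the curve, came from dose-response curves fitted with in-house Breeze software.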

[2] = test system: WM165
How it was run: as §1

[3] = test system: FM-MEL-2
How it was run: as §1

[4] = test system: FM-MEL-3
How it was run: as §1

[5] = test system: SK-MEL-2
How it was run: as §1

[6] = test system: FM-MEL-6
How it was run: as §1

[7] = test system: Bowes
How it was run: as §1

[8] = test system: WM852
How it was run: as §1

| Compound | drug sensitivity score [1] | drug sensitivity score [2] | drug sensitivity score [3] | drug sensitivity score [4] | drug sensitivity score [5] | drug sensitivity score [6] | drug sensitivity score [7] | drug sensitivity score [8] |
| --- | --- | --- | --- | --- | --- | --- | --- | --- |
| O=C(O)CC[C@H]1CC[C@@](c2cc(F)ccc2F)(S(=O)(=O)c2ccc(Cl)cc2)CC1 [MK-0752] | 0 | 0 | 0 | 0 | 0 | 0 | 0 | 0 |
| Cc1cc(C)c(CNC(=O)c2cc(-c3ccc(CN4CCOCC4)cc3)cc3c2cnn3C2CCCC2)c(=O)[nH]1 [EPZ-5687] | 0 | 0 | 0 | 2.8 | 0 | 0.5 | 2.6 | 0 |
| COc1cc2ncnc(Oc3cccc(NC(=O)Nc4cc(C(C)(C)C(F)(F)F)on4)c3)c2cc1OC | 0 | 0 | 7.6 | 15 | 0 | 2 | 0 | 3.3 |
| CCC/C=C/C=C/C(=O)O[C@H]1/C(=C/C(=O)OC)C[C@H]2C[C@H]([C@@H](C)O)OC(=O)C[C@H](O)C[C@@H]3C[C@H](OC(C)=O)C(C)(C)[C@](O)(C[C@@H]4C/C(=C/C(=O)OC)C[C@H](/C=C/C(C)(C)[C@]1(O)O2)O4)O3 [Bryostatin 1] | 1.9 | 2 | 0 | 0.1 | 0 | 5.8 | 1.7 | 4.3 |
| Nc1cc(F)ccc1NC(=O)/C=C/c1cnn(C/C=C/c2ccccc2)c1 [RGFP966] | 0 | 0 | 0 | 0.5 | 0 | 1.9 | 1.6 | 0 |
| CCN(CC)CCOc1ccc(C(=C(Cl)c2ccccc2)c2ccccc2)cc1 [Clomifene] | 6.8 | 6.1 | 4.1 | 5.6 | 4.2 | 6.3 | 5.8 | 5.2 |
| CCN1C(=O)CNc2ncc(-c3ccc(-c4nc[nH]n4)nc3C)nc21 [CC-115] | 6.5 | 10.4 | 10.7 | 8.5 | 9.8 | 9.5 | 8.2 | 5 |
| CC(=O)c1cc2c(o1)C(=O)c1ccccc1C2=O [Napabucasin] | 16.8 | 27 | 4.2 | 19.6 | 15.7 | 22.1 | 20.5 | 19.1 |
| CCOc1ccn(-c2ccc(F)cc2)c(=O)c1C(=O)Nc1ccc(Oc2ccnc(N)c2Cl)c(F)c1 | 0 | 0 | 0 | 0 | 0 | 0 | 0 | 0 |
| COc1cc(Nc2c(C#N)cnc3cc(OCCCN4CCN(C)CC4)c(OC)cc23)c(Cl)cc1Cl [Bosutinib] | 8.7 | 8.4 | 5 | 3.2 | 4.7 | 4.9 | 8.2 | 7.6 |
| C[C@@H]1COCCN1c1cc(C2([S@](C)(=N)=O)CC2)nc(-c2cc[nH]c3nccc2-3)n1 [AZD6738] | 2.7 | 10.2 | 3.4 | 9.7 | 10.8 | 7 | 19.3 | 14.8 |
| CN(C)C(=N)NC(=N)N [Metformin] | 0 | 0 | 0 | 0 | 0 | 0 | 0 | 0 |
| O=C(Nc1ccc(OC(F)(F)Cl)cc1)c1cnc(N2CC[C@@H](O)C2)c(-c2cc[nH]n2)c1 [Asciminib] | 0 | 0 | 0.6 | 0.1 | 0 | 0 | 0 | 0.3 |
| Cc1noc2c1-c1ccccc1C(c1ccc(Cl)cc1)=N[C@H]2CC(N)=O [CPI-0610] | 2.8 | 6.6 | 5.2 | 4.8 | 1 | 0 | 3.8 | 0 |
| CC(=O)c1cnc2ccc(-c3cc(Cl)c(O)c(Cl)c3)nc2c1N[C@H]1CC[C@H](CN(C)C)CC1 [OTS167] | 14.3 | 17.4 | 9.5 | 19 | 11.4 | 8 | 15.4 | 10.5 |
| CC(C)c1cc(C(=O)N2Cc3ccc(CN4CCN(C)CC4)cc3C2)c(O)cc1O [Onalespib] | 6.9 | 15 | 7.1 | 14.2 | 8 | 4.2 | 13.3 | 5.7 |
| C=CC(=O)Nc1cc2c(Nc3ccc(F)c(Cl)c3)ncnc2cc1OCCCN1CCOCC1 [Canertinib] | 3.5 | 7.5 | 8.4 | 9.1 | 4.9 | 6.3 | 8.7 | 6.5 |
| CCc1cc2c(cc1N1CCC(N3CCOCC3)CC1)C(C)(C)c1[nH]c3cc(C#N)ccc3c1C2=O [Alectinib] | 0 | 0.2 | 0.6 | 0 | 0 | 0 | 0 | 0 |

| Compound | drug sensitivity score [1] | drug sensitivity score [2] | drug sensitivity score [3] | drug sensitivity score [4] | drug sensitivity score [5] | drug sensitivity score [6] | drug sensitivity score [7] | drug sensitivity score [8] |
| --- | --- | --- | --- | --- | --- | --- | --- | --- |
| C=C1C[C@@H]2[C@H](CC[C@]3(C)C(=O)CC[C@@H]23)[C@@]2(C)C=CC(=O)C=C12 [Exemestane] | 0 | 0.2 | 0 | 0 | 0 | 0 | 1.4 | 0.3 |
| CCN(CC)CCNC(=O)c1c(C)[nH]c(/C=C2\C(=O)Nc3ccc(F)cc32)c1C [Sunitinib] | 0 | 0.8 | 0 | 0 | 0 | 0 | 0 | 0 |
| C=CC(=O)Nc1cccc(Nc2nc(Nc3ccc(OCCOC)cc3)ncc2F)c1 [Spebrutinib] | 0.7 | 1.1 | 0.9 | 1 | 0 | 1 | 2.1 | 0.9 |
| O=C1CCC(N2C(=O)c3ccccc3C2=O)C(=O)N1 (stereo not given) [Thalidomide] | 0 | 0 | 0 | 0 | 0 | 0 | 0 | 0 |
| C[C@H]1CN(C2COC2)CCN1c1ccc(Nc2cc(-c3ccnc(N4CCn5c(cc6c5CC(C)(C)C6)C4=O)c3CO)cn(C)c2=O)nc1 [GDC-0853] | 0 | 0 | 0 | 0 | 0 | 0 | 0 | 0 |
| Cc1c(Cn2c(C)nc3c(C(=O)O)cc(N4CCOCC4)cc32)cccc1C(F)(F)F | 0.3 | 0 | 0 | 0 | 0 | 0 | 0 | 0 |
| COc1cccc2c1C(=O)c1c(O)c3c(c(O)c1C2=O)C[C@@](O)(C(=O)CO)C[C@@H]3O[C@H]1C[C@H](N)[C@H](O)[C@H](C)O1 [Doxorubicin] | 7.8 | 15.1 | 6.7 | 6.8 | 4.9 | 7.8 | 4.2 | 4.8 |
| CC/C(=C(\c1ccc(O)cc1)c1ccc(OCCN(C)C)cc1)c1ccccc1 [4-hydroxytamoxifen] | 4.5 | 3.9 | 6.6 | 7.4 | 2.8 | 7.8 | 0 | 7.9 |
| NC(=O)/C(=C/n1cnc(-c2cc(C(F)(F)F)cc(C(F)(F)F)c2)n1)c1cncnc1 [Eltanexor] | 14 | 19.3 | 9.5 | 18.4 | 15.2 | 11.8 | 14.8 | 11.2 |
| CCS(=O)(=O)N1CC(CC#N)(n2cc(-c3ncnc4[nH]ccc34)cn2)C1 [Baricitinib] | 0 | 0 | 0 | 0 | 0 | 0 | 0 | 0 |
| N#CC(c1ccnc(OCc2ccc(CN3CCOCC3)cc2)n1)c1nc2ccccc2s1 (stereo not given) [Bentamapimod] | 0.8 | 1.1 | 3.9 | 5.9 | 0 | 2.8 | 1.4 | 0.1 |
| CNS(=O)(=O)Nc1nccc(Cc2c(C)c3ccc(Oc4ncccn4)cc3oc2=O)c1F | 3.2 | 3.2 | 6.3 | 10.7 | 4.2 | 0.2 | 0.6 | 0 |
| CCCc1cc(C)[nH]c(=O)c1CNC(=O)c1cc(-c2ccnc(N3CCN(C)CC3)c2)cc2c1cnn2C(C)C [GSK343] | 0 | 0 | 0.1 | 0.2 | 0.1 | 0 | 0 | 0 |
| CN[C@@H](C)C(=O)N[C@H](C(=O)N1CCC[C@H]1c1nc(C(=O)c2ccc(F)cc2)cs1)C1CCCCC1 [NVP-LCL161] | 0.9 | 0 | 14.9 | 4.5 | 0.2 | 3.9 | 3 | 2.4 |
| CNC(=O)[C@@H](NC(=O)[C@H](CC(C)C)[C@H](O)C(=O)NO)C(C)(C)C [Marimastat] | 0 | 0.6 | 0 | 0 | 0 | 0 | 0 | 0 |
| CC(C)(C)c1cc(NC(=O)Nc2ccc(Oc3ccnc4[nH]c(=O)cnc34)cc2F)n(-c2ccccc2)n1 | 10.3 | 12.6 | 11.6 | 14.5 | 4.5 | 4.2 | 10.7 | 5.3 |
| NC(=O)c1cccc2cn(-c3ccc([C@@H]4CCCNC4)cc3)nc12 [Niraparib] | 0 | 6.9 | 1.4 | 0 | 0 | 0 | 0 | 0 |
